From ChEMBL document CHEMBL1149819, “Synthesis and in vivo anti-mutagenic activity of novel melatonin derivatives” (2008)

Legend:
Conditions in all cases: route intragastric
Mus musculus [1] = test: Antimutagenic activity in mouse brain assessed as protein level per gram of tissue at 18.38 mg/kg administered intragastrically for 1 week; assay type: functional
Mus musculus [2] = test: Antimutagenic activity in mouse kidney assessed as protein level per gram of tissue at 18.38 mg/kg administered intragastrically for 1 week; assay type: functional
Mus musculus [3] = test: Antimutagenic activity in Albino mouse testes assessed as RNA level per gram of tissue at 18.38 mg/kg administered intragastrically for 1 week; assay type: functional, Testis
Mus musculus [4] = test: Antimutagenic activity against cyclophosphamide-induced mutagenicity in Albino mouse brain assessed as DNA level per gram of tissue at 18.38 mg/kg administered intragastrically for 1 week; assay type: functional
Mus musculus [5] = test: Antimutagenic activity in mouse liver assessed as protein level per gram of tissue at 18.38 mg/kg administered intragastrically for 1 week; assay type: functional
Mus musculus [6] = test: Antimutagenic activity against cyclophosphamide-induced mutagenicity in mouse brain assessed as protein level per gram of tissue at 18.38 mg/kg administered intragastrically for 1 week; assay type: functional
Mus musculus [7] = test: Antimutagenic activity against cyclophosphamide-induced mutagenicity in Albino mouse brain assessed as RNA level per gram of tissue at 18.38 mg/kg administered intragastrically for 1 week; assay type: functional
Mus musculus [8] = test: Antimutagenic activity in Albino mouse liver assessed as RNA level per gram of tissue at 18.38 mg/kg administered intragastrically for 1 week; assay type: functional
Mus musculus [9] = test: Antimutagenic activity against cyclophosphamide-induced mutagenicity in mouse brain assessed as cholinesterase activity per microgram of tissue at 18.38 mg/kg administered intragastrically for 1 week; assay type: functional
Mus musculus [10] = test: Antimutagenic activity against cyclophosphamide-induced mutagenicity in Albino mouse liver assessed as DNA level per gram of tissue at 18.38 mg/kg administered intragastrically for 1 week; assay type: functional
Mus musculus [11] = test: Antimutagenic activity against cyclophosphamide-induced mutagenicity in Albino mouse kidney assessed as DNA level per gram of tissue at 18.38 mg/kg administered intragastrically for 1 week; assay type: functional
Mus musculus [12] = test: Inhibition of cyclophosphamide-induced increase in micronuclei/polychromatic erythrocytes count in mouse at 14.16 mg/kg administered intragastrically for 1 week by micronuclei assay; assay type: functional; design: scale not given: the % may be the effect or the level left
Mus musculus [13] = test: Antimutagenic activity in Albino mouse liver assessed as DNA level per gram of tissue at 18.38 mg/kg administered intragastrically for 1 week; assay type: functional
Mus musculus [14] = test: Antimutagenic activity in Albino mouse brain assessed as DNA level per gram of tissue at 18.38 mg/kg administered intragastrically for 1 week; assay type: functional
Mus musculus [15] = test: Antimutagenic activity against cyclophosphamide-induced mutagenicity in mouse testes assessed as protein level per gram of tissue at 18.38 mg/kg administered intragastrically for 1 week; assay type: functional, Testis
Mus musculus [16] = test: Antimutagenic activity in Albino mouse kidney assessed as DNA level per gram of tissue at 18.38 mg/kg administered intragastrically for 1 week; assay type: functional
Mus musculus [17] = test: Antimutagenic activity against cyclophosphamide-induced mutagenicity in Albino mouse testes assessed as RNA level per gram of tissue at 18.38 mg/kg administered intragastrically for 1 week; assay type: functional, Testis
Mus musculus [18] = test: Antimutagenic activity against cyclophosphamide-induced mutagenicity in Albino mouse testes assessed as DNA level per gram of tissue at 18.38 mg/kg administered intragastrically for 1 week; assay type: functional, Testis
Mus musculus [19] = test: Antimutagenic activity against cyclophosphamide-induced mutagenicity in mouse kidney assessed as protein level per gram of tissue at 18.38 mg/kg administered intragastrically for 1 week; assay type: functional
Mus musculus [20] = test: Antimutagenic activity in Albino mouse brain assessed as RNA level per gram of tissue at 18.38 mg/kg administered intragastrically for 1 week; assay type: functional
Mus musculus [21] = test: Antimutagenic activity against cyclophosphamide-induced mutagenicity in mouse brain assessed as peroxidase activity per microgram of tissue at 18.38 mg/kg administered intragastrically for 1 week; assay type: functional
Mus musculus [22] = test: Antimutagenic activity in mouse brain assessed as cholinesterase activity per microgram of tissue at 18.38 mg/kg administered intragastrically for 1 week; assay type: functional
Mus musculus [23] = test: Antimutagenic activity against cyclophosphamide-induced mutagenicity in mouse liver assessed as protein level per gram of tissue at 18.38 mg/kg administered intragastrically for 1 week; assay type: functional
Mus musculus [24] = test: Antimutagenic activity in Albino mouse kidney assessed as RNA level per gram of tissue at 18.38 mg/kg administered intragastrically for 1 week; assay type: functional
Mus musculus [25] = test: Antimutagenic activity against cyclophosphamide-induced mutagenicity in Albino mouse kidney assessed as RNA level per gram of tissue at 18.38 mg/kg administered intragastrically for 1 week; assay type: functional
Mus musculus [26] = test: Antimutagenic activity in mouse brain assessed as peroxidase activity per microgram of tissue at 18.38 mg/kg administered intragastrically for 1 week; assay type: functional
Mus musculus [27] = test: Antimutagenic activity in Albino mouse testes assessed as DNA level per gram of tissue at 18.38 mg/kg administered intragastrically for 1 week; assay type: functional, Testis
Mus musculus [28] = test: Antimutagenic activity against cyclophosphamide-induced mutagenicity in Albino mouse liver assessed as RNA level per gram of tissue at 18.38 mg/kg administered intragastrically for 1 week; assay type: functional
Mus musculus [29] = test: Antimutagenic activity against cyclophosphamide-induced mutagenicity in Albino mouse testes assessed as RNA level per gram of tissue at 23.04 mg/kg administered intragastrically for 1 week; assay type: functional, Testis
Mus musculus [30] = test: Antimutagenic activity against cyclophosphamide-induced mutagenicity in Albino mouse liver assessed as DNA level per gram of tissue at 23.04 mg/kg administered intragastrically for 1 week; assay type: functional
Mus musculus [31] = test: Antimutagenic activity against cyclophosphamide-induced mutagenicity in Albino mouse liver assessed as RNA level per gram of tissue at 23.04 mg/kg administered intragastrically for 1 week; assay type: functional
Mus musculus [32] = test: Antimutagenic activity in Albino mouse kidney assessed as DNA level per gram of tissue at 23.04 mg/kg administered intragastrically for 1 week; assay type: functional
Mus musculus [33] = test: Antimutagenic activity against cyclophosphamide-induced mutagenicity in mouse brain assessed as peroxidase activity per microgram of tissue at 23.04 mg/kg administered intragastrically for 1 week; assay type: functional
Mus musculus [34] = test: Antimutagenic activity against cyclophosphamide-induced mutagenicity in Albino mouse testes assessed as DNA level per gram of tissue at 23.04 mg/kg administered intragastrically for 1 week; assay type: functional, Testis
Mus musculus [35] = test: Antimutagenic activity against cyclophosphamide-induced mutagenicity in Albino mouse brain assessed as RNA level per gram of tissue at 23.04 mg/kg administered intragastrically for 1 week; assay type: functional
Mus musculus [36] = test: Antimutagenic activity in mouse brain assessed as peroxidase activity per microgram of tissue at 23.04 mg/kg administered intragastrically for 1 week; assay type: functional
Mus musculus [37] = test: Antimutagenic activity in Albino mouse liver assessed as DNA level per gram of tissue at 23.04 mg/kg administered intragastrically for 1 week; assay type: functional
Mus musculus [38] = test: Antimutagenic activity against cyclophosphamide-induced mutagenicity in mouse liver assessed as protein level per gram of tissue at 23.04 mg/kg administered intragastrically for 1 week; assay type: functional
Mus musculus [39] = test: Antimutagenic activity in mouse kidney assessed as protein level per gram of tissue at 23.04 mg/kg administered intragastrically for 1 week; assay type: functional
Mus musculus [40] = test: Antimutagenic activity against cyclophosphamide-induced mutagenicity in mouse brain assessed as cholinesterase activity per microgram of tissue at 23.04 mg/kg administered intragastrically for 1 week; assay type: functional
Mus musculus [41] = test: Antimutagenic activity in Albino mouse brain assessed as DNA level per gram of tissue at 23.04 mg/kg administered intragastrically for 1 week; assay type: functional
Mus musculus [42] = test: Antimutagenic activity in Albino mouse testes assessed as RNA level per gram of tissue at 23.04 mg/kg administered intragastrically for 1 week; assay type: functional, Testis
Mus musculus [43] = test: Antimutagenic activity in mouse liver assessed as protein level per gram of tissue at 23.04 mg/kg administered intragastrically for 1 week; assay type: functional
Mus musculus [44] = test: Antimutagenic activity against cyclophosphamide-induced mutagenicity in mouse testes assessed as protein level per gram of tissue at 23.04 mg/kg administered intragastrically for 1 week; assay type: functional, Testis
Mus musculus [45] = test: Antimutagenic activity against cyclophosphamide-induced mutagenicity in Albino mouse kidney assessed as DNA level per gram of tissue at 23.04 mg/kg administered intragastrically for 1 week; assay type: functional
Mus musculus [46] = test: Antimutagenic activity in mouse brain assessed as protein level per gram of tissue at 23.04 mg/kg administered intragastrically for 1 week; assay type: functional
Mus musculus [47] = test: Antimutagenic activity in Albino mouse kidney assessed as RNA level per gram of tissue at 23.04 mg/kg administered intragastrically for 1 week; assay type: functional
Mus musculus [48] = test: Antimutagenic activity against cyclophosphamide-induced mutagenicity in mouse kidney assessed as protein level per gram of tissue at 23.04 mg/kg administered intragastrically for 1 week; assay type: functional
Mus musculus [49] = test: Inhibition of cyclophosphamide-induced increase in micronuclei/polychromatic erythrocytes count in mouse at 23.04 mg/kg administered intragastrically for 1 week by micronuclei assay; assay type: functional; design: scale not given: the % may be the effect or the level left
Mus musculus [50] = test: Antimutagenic activity against cyclophosphamide-induced mutagenicity in Albino mouse kidney assessed as RNA level per gram of tissue at 23.04 mg/kg administered intragastrically for 1 week; assay type: functional
Mus musculus [51] = test: Antimutagenic activity in Albino mouse liver assessed as RNA level per gram of tissue at 23.04 mg/kg administered intragastrically for 1 week; assay type: functional
Mus musculus [52] = test: Antimutagenic activity in Albino mouse brain assessed as RNA level per gram of tissue at 23.04 mg/kg administered intragastrically for 1 week; assay type: functional
Mus musculus [53] = test: Antimutagenic activity in Albino mouse testes assessed as DNA level per gram of tissue at 23.04 mg/kg administered intragastrically for 1 week; assay type: functional, Testis
Mus musculus [54] = test: Antimutagenic activity in mouse brain assessed as cholinesterase activity per microgram of tissue at 23.04 mg/kg administered intragastrically for 1 week; assay type: functional
Mus musculus [55] = test: Antimutagenic activity against cyclophosphamide-induced mutagenicity in mouse brain assessed as protein level per gram of tissue at 23.04 mg/kg administered intragastrically for 1 week; assay type: functional
Mus musculus [56] = test: Antimutagenic activity against cyclophosphamide-induced mutagenicity in Albino mouse brain assessed as DNA level per gram of tissue at 23.04 mg/kg administered intragastrically for 1 week; assay type: functional

**Q.** Which results are given for `COc1ccc2c(c1)c(CCNC(C)=O)c1sc(-c3sc(N)c(C#N)c3N)nn12`?
**A.** Activity (Mus musculus [1]): 2.76 g; Activity (Mus musculus [2]): 7.17 g; Activity (Mus musculus [3]): 0.27 mg; Activity (Mus musculus [4]): 0.22 mg; Activity (Mus musculus [5]): 9.81 g; Activity (Mus musculus [6]): 2.53 g; Activity (Mus musculus [7]): 0.16 mg; Activity (Mus musculus [8]): 0.46 mg; Activity (Mus musculus [9]): 2.85 U; Activity (Mus musculus [10]): 0.29 mg; Activity (Mus musculus [11]): 0.35 mg; Activity (Mus musculus [12]): 44%; Activity (Mus musculus [13]): 0.33 mg; Activity (Mus musculus [14]): 0.35 mg; Activity (Mus musculus [15]): 3.11 g; Activity (Mus musculus [16]): 0.34 mg; Activity (Mus musculus [17]): 0.2 mg; Activity (Mus musculus [18]): 0.3 mg; Activity (Mus musculus [19]): 4.14 g; Activity (Mus musculus [20]): 0.19 mg; Activity (Mus musculus [21]): 4.1 U/min; Activity (Mus musculus [22]): 3.76 U; Activity (Mus musculus [23]): 9.26 g; Activity (Mus musculus [24]): 0.28 mg; Activity (Mus musculus [25]): 0.24 mg; Activity (Mus musculus [26]): 6.3 U/min; Activity (Mus musculus [27]): 0.35 mg; Activity (Mus musculus [28]): 0.49 mg

**Q.** Which results are given for `COc1ccc2c(c1)c(CCNC(C)=O)c1sc(-c3c(-c4ccccc4)cnn(-c4ccccc4)c3=N)nn12`?
**A.** Activity (Mus musculus [29]): 0.2 mg; Activity (Mus musculus [30]): 0.32 mg; Activity (Mus musculus [31]): 0.51 mg; Activity (Mus musculus [32]): 0.38 mg; Activity (Mus musculus [33]): 5.5 U/min; Activity (Mus musculus [34]): 0.31 mg; Activity (Mus musculus [35]): 0.17 mg; Activity (Mus musculus [36]): 9.74 U/min; Activity (Mus musculus [37]): 0.35 mg; Activity (Mus musculus [38]): 10.03 g; Activity (Mus musculus [39]): 8.68 g; Activity (Mus musculus [40]): 3.03 U; Activity (Mus musculus [41]): 0.37 mg; Activity (Mus musculus [42]): 0.36 mg; Activity (Mus musculus [43]): 10.23 g; Activity (Mus musculus [44]): 4.31 g; Activity (Mus musculus [45]): 0.36 mg; Activity (Mus musculus [46]): 3.2 g; Activity (Mus musculus [47]): 0.47 mg; Activity (Mus musculus [48]): 4.96 g; Activity (Mus musculus [49]): 65%; Activity (Mus musculus [50]): 0.4 mg; Activity (Mus musculus [51]): 0.48 mg; Activity (Mus musculus [52]): 0.21 mg; Activity (Mus musculus [53]): 0.39 mg; Activity (Mus musculus [54]): 4.21 U; Activity (Mus musculus [55]): 3.15 g; Activity (Mus musculus [56]): 0.25 mg
